Results: ChEMBL document CHEMBL1131927, “The synthesis and evaluation of temperature sensitive tubulin toxins” (Bioorg Med Chem Lett, 1999)

How the values were obtained:
Assay type in all cases: functional
Tubulin [1] = molecular target: T1, Tubulin (Bos taurus, UniProt Q6B856+Q862L2+Q862F3); experiment: Inhibition of tubulin polymerization activity using homogenous bovine brain tubulin at 37 degree C
NCI-H520 = experiment: In vitro growth inhibitory activity against human neoplastic NCI-H520 cell line
Tubulin [2] = molecular target: T1, Tubulin; experiment: Inhibition of tubulin polymerization activity using homogenous bovine brain tubulin at 30 degree C
PC-3 = experiment: In vitro growth inhibitory activity against human neoplastic PC3 cell line
[3] = Selectivity ratio expressed as temperature dependence at 45 Degree C to that of 30 Degree C in bovine brain tubulin
MCF7 = experiment: In vitro growth inhibitory activity against human neoplastic MCF-7 cell line
Tubulin [4] = molecular target: T1, Tubulin; experiment: Inhibition of tubulin polymerization activity using homogenous bovine brain tubulin at 45 degree C

Compound | IC50 (Tubulin [1]) | GI50 (NCI-H520) | IC50 (Tubulin [2]) | GI50 (PC-3) | Selectivity [3] | GI50 (MCF7) | IC50 (Tubulin [4])
COc1cc(C2CCc3cc(OC)c(OC)c(OC)c32)ccc1O (centres undefined) | 46.4 µM | >100 µM | 46.4 µM | >100 µM | 0 | >100 µM | 46.4 µM
CCOc1cccc(C2CCc3cc(OC)c(OC)c(OC)c32)cc1=O (centres undefined) | 18.2 µM |  | 26.2 µM |  | 1.7 |  | 18 µM
COc1cc2c(c(OC)c1OC)-c1ccc(OC)c(=O)cc1[C@@H](NC(C)=O)CC2 [COLCHICINE] |  | <0.05 µM |  | <0.05 µM |  | <0.05 µM | 
COc1cc2c(c(OC)c1OC)C(c1cccc(Br)c(=O)c1)CC2 (centres undefined) | 28.1 µM |  | 32 µM |  | 1.45 |  | 22 µM
COc1cc2c(c(OC)c1OC)C(c1cccc(N)c(=O)c1)CC2 (centres undefined) | 23.6 µM |  | 29.5 µM |  | 1.25 |  | 23.6 µM
COc1ccc(C2CCc3cc(OC)c(OC)c(OC)c32)cc1O (centres undefined) | 10.9 µM | 0.1 µM | 11.8 µM | 0.5 µM | 1.1 | 10 µM | 10.9 µM
COc1cc2c(c(OC)c1OC)C(c1cccc(OC)c(=O)c1)CC2 (centres undefined) | 19 µM | 5.4 µM | 108 µM | 5.2 µM | 5.7 | 75 µM | 19 µM
CNc1cccc(C2CCc3cc(OC)c(OC)c(OC)c32)cc1=O (centres undefined) | 23.5 µM |  | 30.6 µM |  | 1.3 |  | 
